# In US6015808A, “Synthesis of pharmaceutical compositions with lactams and β-lactams/oxo thia azabicyclo compounds” (priority 1995, dated 2000):
# Entries after “also recorded” stand apart in the source; their conditions may differ. Starred links: 1 amine or outer side, 2 acyl side, 3 side chain; linkers in the order of their positions; H or OH if unused. Positions of bridges follow the written chain, without caps; N, C: chain ends. Non-standard residues stand in square brackets, D forms with d. Residues, ends and D or L forms follow the SMILES beside them. Chains are numbered I, II in the order given. Actinocin(9to1) = Cc1c2oc3c(C)ccc(C(=O)[*:1])c3nc-2c(C(=O)[*:2])c(N)c1=O; NMeV = CN[C@H](C(=O)O)C(C)C; Sar = CNCC(=O)O
# Experiments:
# P. marneffei = test: in vitro MIC against P. marneffei, tube double dilution; type: cell-based, Penicillium marneffei; conditions: Talaromyces marneffei, standard tube double dilution, read-out: minimum inhibitory concentration (MIC)
# Candida albicans = test: survival of mice challenged with Candida albicans; type: in vivo, Swiss albino mice; conditions: for survival rate: 21-day study period, clotrimazole types 7.5 mg/kg, nystatin types 50 mg/kg; for survival rate after extended treatment: treatment extended two more weeks, 28 days post-inoculation
# [1] = system: human breast carcinoma MX-1; test: MX-1 human breast tumor in nude mice; conditions: intraperitoneal; for effect on MX-1 tumors (in words): 0.5 mg/kg escalating to 5 mg/kg (parents) or 20 mg/kg (JAI-); for deaths / survival of MX-1 mice (in words): 3 animals per group
# Method: Nude mice were grafted with transplantable human breast carcinoma MX-1, which was allowed to grow until the tumors were very large. The mice were then treated with clinically compatible dosage schedules of the compounds. All doses were administered intraperitoneally.
# A control group (3 animals in the group), grafted with MX-1 tumor, which was allowed to grow to large tumors. Then, the mice were injected with distilled water and their tumors were measured simultaneously with the experimental treated animals.
# 1. […] The starting dose of mitomycin C was 0.5 mg/kg. escalating up to 5 mg/kg to all mice in the group. […] (3 animals per group).
# 2. […] The starting dose was 0.5 mg/kg escalating to 20 mg/kg. […] (3 animals per group).
# 3. […] The starting dose was 0.5 mg/kg escalating to 5 mg/kg. (3 animals per group).
# 4. […] The starting dose was 0.5 mg/kg escalating to 20mg/kg doses. (3 animals per group).
# [2] = system: Mycobacterium avicum Complex (MAC); conditions: cited from earlier work
# M. leprae = test: in vitro culture of M. leprae, growth inhibition; type: cell-based
# oral absorption = type: in vivo
# toxicity / LD 50 in mice = conditions: mouse, in vivo
# fungi = conditions: cited from earlier work
# Bacillus subtilis = conditions: 28° C., 12 hours
# Method: All plates were incubated at 10° C. for 30 minutes, and then transferred to an incubator at 28° C. for 12 hours. Zones of inhibition were obtained from each plate, and Rf values were calculated.
# bacteria = conditions: cited from earlier work
molecule,measurement,setting,value
"Nc1nc(=O)[nH]cc1F [5-FC, 5-fluorocytosine]",MIC,P. marneffei,0.195 to 0.78 µg/mL
Clc1ccccc1C(c1ccccc1)(c1ccccc1)n1ccnc1 [Clotrimazole],solubility in water,,insoluble in water
same,survival rate,Candida albicans,62.5%
same,survival rate after extended treatment,Candida albicans,zero
CO[C@@]12[C@H](COC(N)=O)C3=C(C(=O)C(C)=C(N)C3=O)N1C[C@@H]1N[C@@H]12 [Mitomycin C],effect on MX-1 tumors (in words),[1]; listed as Mitomycin-C,the tumors regressed
same,effect on MX-1 tumors (in words),[1]; listed as mitomycin-C,eliminated the human MX-1 breast tumors
same,deaths / survival of MX-1 mice (in words),[1]; listed as Mitomycin-C,died
same,deaths / survival of MX-1 mice (in words),[1]; listed as mitomycin-C,All animals died in a two month time span; also recorded: all animals in this treatment group died from hepatotoxicity
NCC[C@H](O)C(=O)N[C@@H]1C[C@H](N)[C@@H](O[C@H]2O[C@H](CN)[C@@H](O)[C@H](O)[C@H]2O)[C@H](O)[C@H]1O[C@H]1O[C@H](CO)[C@@H](O)[C@H](N)[C@H]1O [amikacin],activity against MAC (earlier studies),[2],high in vitro and in vyvn activity
same,inhibition at 100 µg/mL,"M. leprae; Mycobacterium leprae, 100 mcg/ml, read-out: growth inhibition against M. leprae",63%
same,M. leprae killed,M. leprae; concentration not given,63%
same,effect of combination with dapsone on M. leprae,M. leprae; in combination with dapsone,did not show any additive effects
C[C@@H]1[C@H](O)[C@@H](C)/C=C/C=C/C=C/C=C/C=C/C=C/C=C/[C@H](O[C@@H]2O[C@H](C)[C@@H](O)[C@H](N)[C@@H]2O)C[C@@H]2O[C@](O)(C[C@@H](O)C[C@@H](O)[C@H](O)CC[C@@H](O)C[C@@H](O)CC(=O)O[C@H]1C)C[C@H](O)[C@H]2C(=O)O [amphotericin B],oral absorption,oral absorption,poorly absorbed orally
same,MIC,P. marneffei,0.195 to 1.56 µg/mL
"Cc1c2oc3c(C)ccc(C(=O)N[C@@H]4C(=O)N[C@H](C(C)C)C(=O)N5CCC[C@H]5C(=O)N(C)CC(=O)N(C)[C@@H](C(C)C)C(=O)O[C@@H]4C)c3nc-2c(C(=O)N[C@@H]2C(=O)N[C@H](C(C)C)C(=O)N3CCC[C@H]3C(=O)N(C)CC(=O)N(C)[C@@H](C(C)C)C(=O)O[C@@H]2C)c(N)c1=O [dactinomycin] (I: T[dV]P[Sar][NMeV] / II: T[dV]P[Sar][NMeV]; ester I:1-I:C, II:1-II:C; linker I:N-II:N via Actinocin(9to1))",LD50,toxicity / LD 50 in mice,0.5 to 5 mg/kg
CC(=O)N1CCN(c2ccc(OCC3COC(Cn4ccnc4)(c4ccc(Cl)cc4Cl)O3)cc2)CC1 (stereo not drawn) [ketoconazole],MIC,P. marneffei,0.195 to 0.39 µg/mL
Clc1ccc(COC(Cn2ccnc2)c2ccc(Cl)cc2Cl)c(Cl)c1 (stereo not drawn) [miconazole],MIC,P. marneffei,0.195 µg/mL
C[C@@H]1[C@H](O)[C@@H](C)/C=C/C=C/CC/C=C/C=C/C=C/C=C/C(O[C@H]2O[C@H](C)[C@@H](O)[C@H](N)[C@@H]2O)CC2O[C@](O)(CC(O)C(O)CCC(O)CC(O)CC(O)CC(=O)O[C@H]1C)CC(O)C2C(=O)O (stereo partly drawn) [nystatin],survival rate,Candida albicans,75%
same,survival rate after extended treatment,Candida albicans,75%
CC1(C)S[C@@H]2[C@H](NC(=O)Cc3ccccc3)C(=O)N2[C@H]1C(=O)O [sodium penicillin G],antifungal activity (stated as known),fungi,no antifungal activity
same,solubility in acetone,acetone,insoluble in acetone
same,"solubility in methanol, alcohol, other solvents","methanol, alcohols, ethyl acetate, other solvents","soluble in water, alcohol and some solvents"
same,solubility in water,,soluble in water
bleomycin,effect on MX-1 tumors (in words),[1],"some initial slowing in tumor growth, but then had no response"
same,effect on MX-1 tumors (in words),[1]; listed as Bleomycin,"some initial slowing of tumor growth, but then there was no response"
hamycin,"zone of inhibition, B. subtilis seeded plate",Bacillus subtilis,no zone spot
same,antibacterial activity (stated as known),bacteria,no antibacterial activity
